# Earlier results as cited in paper PMC2613028, “Discovery of a Non-Peptidic Inhibitor of West Nile Virus NS3 Protease by High-Throughput Docking” (PLoS Neglected Tropical Diseases, 2009).
# Read-outs that look alike come from different tables or passages of the source.
# Test system: WNV protease
# Set-up: method as in PMID 17064076
# Settings: peptide aldehyde inhibitors
substance,measurement,setting,value
benzoyl-norleucine-lysine-arginine-arginine-aldehyde [Bz-Nle-Lys-Arg-Arg-H],IC50,,4.1 µM
same,IC50,listed as Bz-nKRR-H,4 µM
